From PubChem BioAssay AID330 (DTP/NCI, 2004)
“And” between values parts separate entries of the source, which are not always exact repeats. Equal values may be shown once. Inconclusive results and toxic doses are left out. Rule for the calls: active = survival T/C of 150% or more; inactive = T/C below 125% in these data.

System: P388 leukemia ip, CD2F1 mice, survival T/C
Test: NCI In Vivo Anticancer Drug Screen. Data for tumor model P388 Leukemia (intraperitoneal) in CD2F1 (CDF1) mice
Settings: endpoint: median survival time, higher = longer survival
Method in brief: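 Mice carrying the transplanted tumor received test compound or vehicle. Survival was recorded in each group, and the value is the treated-group measurement divided by that of the vehicle-treated control group.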

[1] = dose: 60.0 mg/kg/injection, schedule: Q01DX005 (ip), vehicle: Klucel (hydroxypropylcellulose) (HPC)
[2] = dose: 120.0 mg/kg/injection, schedule: Q01DX005 (ip), vehicle: Klucel (hydroxypropylcellulose) (HPC)
[3] = dose: 240.0 mg/kg/injection, schedule: Q01DX005 (ip), vehicle: Klucel (hydroxypropylcellulose) (HPC)
[4] = dose: 12.5 mg/kg/injection, schedule: Q01DX005 (ip), vehicle: saline with Tween-80
[5] = dose: 25.0 mg/kg/injection, schedule: Q01DX005 (ip), vehicle: saline with Tween-80
[6] = dose: 50.0 mg/kg/injection, schedule: Q01DX005 (ip), vehicle: saline with Tween-80
[7] = dose: 10.0 mg/kg/injection, schedule: Q01DX009 (ip), vehicle: saline with Tween-80
[8] = dose: 60.0 mg/kg/injection, schedule: Q01DX005 (ip), vehicle: saline with Tween-80
[9] = dose: 120.0 mg/kg/injection, schedule: Q01DX005 (ip), vehicle: saline with Tween-80
[10] = dose: 100.0 mg/kg/injection, schedule: Q01DX005 (ip), vehicle: saline with Tween-80
[11] = dose: 100.0 mg/kg/injection, schedule: Q04DX003 (ip), vehicle: saline with Tween-80
[12] = dose: 200.0 mg/kg/injection, schedule: Q04DX003 (ip), vehicle: saline with Tween-80
[13] = dose: 400.0 mg/kg/injection, schedule: Q04DX003 (ip), vehicle: saline with Tween-80
[14] = dose: 12.5 mg/kg/injection, schedule: Q01DX005 (ip), vehicle: Klucel (hydroxypropylcellulose) (HPC)
[15] = dose: 100.0 mg/kg/injection, schedule: Q01DX009 (ip), vehicle: saline with Tween-80
[16] = dose: 200.0 mg/kg/injection, schedule: Q01DX009 (ip), vehicle: saline with Tween-80
[17] = dose: 50.0 mg/kg/injection, schedule: Q01DX005 (ip), vehicle: Klucel (hydroxypropylcellulose) (HPC)

Measured: T/C

Cc1ccc(S(=O)(=O)NNC(=O)CCC(=O)NS(C)(=O)=O)cc1
inactive: dose: 100.0 mg/kg/injection, schedule: Q01DX001 (ip), vehicle: saline with Tween-80 100 % of control | dose: 200.0 mg/kg/injection, schedule: Q01DX001 (ip), vehicle: saline with Tween-80 97 % of control | dose: 400.0 mg/kg/injection, schedule: Q01DX001 (ip), vehicle: saline with Tween-80 93 % of control

CC(C)(C)/C=C/N=NNc1cc2ccccc2s1
inactive: [1] 100 % of control | [2] 105 % of control | [3] 108 % of control

CN(C)/C=C(/N=C(C#N)C#N)C1OCCO1
inactive: [4] 100 % of control | [5] 112 % of control | [6] 117 % of control

NC(=NCCCC(NCc1ccccc1)C(=O)O)N[N+](=O)[O-] (stereo not given)
inactive: dose: 12.5 mg/kg/injection, schedule: Q01DX009 (ip), vehicle: Klucel (hydroxypropylcellulose) (HPC) 98 % of control | dose: 25.0 mg/kg/injection, schedule: Q01DX009 (ip), vehicle: Klucel (hydroxypropylcellulose) (HPC) 99 % of control | dose: 50.0 mg/kg/injection, schedule: Q01DX009 (ip), vehicle: Klucel (hydroxypropylcellulose) (HPC) 99 % of control and 100 % of control | dose: 100.0 mg/kg/injection, schedule: Q01DX009 (ip), vehicle: Klucel (hydroxypropylcellulose) (HPC) 99 % of control and 100 % of control | dose: 200.0 mg/kg/injection, schedule: Q01DX009 (ip), vehicle: Klucel (hydroxypropylcellulose) (HPC) 100 % of control and 96 % of control | dose: 400.0 mg/kg/injection, schedule: Q01DX009 (ip), vehicle: Klucel (hydroxypropylcellulose) (HPC) 94 % of control

CC1(C)OC(=O)N=C1c1ccccc1Cl
inactive: [1] 108 % of control | [2] 104 % of control | [3] 108 % of control

NC(=S)Nc1ccccc1
inactive: dose: 2.5 mg/kg/injection, schedule: Q01DX009 (ip), vehicle: saline with Tween-80 100 % of control | dose: 2.5 mg/kg/injection, schedule: Q04DX003 (ip), vehicle: saline sonified 100 % of control | dose: 5.0 mg/kg/injection, schedule: Q01DX009 (ip), vehicle: saline with Tween-80 100 % of control | dose: 5.0 mg/kg/injection, schedule: Q04DX003 (ip), vehicle: saline sonified 104 % of control | [7] 100 % of control | dose: 10.0 mg/kg/injection, schedule: Q04DX003 (ip), vehicle: saline sonified 95 % of control

CC(=O)Oc1ccc2c3c1CCCN3CCC2
inactive: [8] 108 % of control | [9] 101 % of control | dose: 240.0 mg/kg/injection, schedule: Q01DX005 (ip), vehicle: saline with Tween-80 102 % of control

CCOC(=O)/C(Cl)=C1\SN(C(=O)OCC)N=C1C
inactive: [6] 99 % of control | [10] 95 % of control | dose: 200.0 mg/kg/injection, schedule: Q01DX005 (ip), vehicle: saline with Tween-80 96 % of control

COc1ccc(-c2cnc(C(N)=O)c(=O)[nH]2)cc1
inactive: [11] 104 % of control | [12] 95 % of control | [13] 100 % of control

COc1cc(/C=C/C(=O)C(CN(C)C)CN(C)C)cc(OC)c1OC
inactive: dose: 6.25 mg/kg/injection, schedule: Q01DX005 (ip), vehicle: Klucel (hydroxypropylcellulose) (HPC) 100 % of control | [14] 103 % of control

ONC(=Nc1cccc2ccccc12)C(=Nc1cccc2ccccc12)NO
inactive: [1] 99 % of control | [2] 102 % of control | [3] 103 % of control

CCCCOC(OCCCC)C(OCCCC)OCCCC
inactive: [15] 105 % of control | dose: 100.0 mg/kg/injection, schedule: Q04DX003 (ip), vehicle: saline sonified 95 % of control | [16] 110 % of control | dose: 200.0 mg/kg/injection, schedule: Q04DX003 (ip), vehicle: saline sonified 100 % of control | dose: 400.0 mg/kg/injection, schedule: Q01DX009 (ip), vehicle: saline with Tween-80 105 % of control | dose: 400.0 mg/kg/injection, schedule: Q04DX003 (ip), vehicle: saline sonified 104 % of control

C=Cn1c([N+](=O)[O-])cnc1/C=C/c1ccc(C(=O)N(CCCC)CCCC)cc1
inactive: dose: 100.0 mg/kg/injection, schedule: Q04DX002 (ip), vehicle: saline with Tween-80 100 % of control | dose: 200.0 mg/kg/injection, schedule: Q04DX002 (ip), vehicle: saline with Tween-80 100 % of control | dose: 400.0 mg/kg/injection, schedule: Q04DX002 (ip), vehicle: saline with Tween-80 89 % of control

CC1[C@@H]2[C@@H](C=C3C4CCC5Cc6nc7c(nc6C[C@@]5(C)C4C[C@H](O)[C@]32CO)CC2CCC3C4=C[C@H]5O[C@@]6(O[C@@](C)(CO)C[C@@H]6O)C(C)[C@@]5(O)[C@]4(C)[C@@H](O)CC3[C@]2(C)C7)O[C@]12CCC(C)(C)O2 (stereo not given in full)
inactive: dose: 12.5 micrograms/kg/injection, schedule: Q01DX009 (ip), vehicle: saline + alcohol 107 % of control | dose: 25.0 micrograms/kg/injection, schedule: Q01DX009 (ip), vehicle: saline + alcohol 116 % of control | dose: 50.0 micrograms/kg/injection, schedule: Q01DX009 (ip), vehicle: saline + alcohol 107 % of control | dose: 100.0 micrograms/kg/injection, schedule: Q01DX009 (ip), vehicle: saline + alcohol 100 % of control

CCC1CN2CCO[Si](CC[Si](C)(C)C)(OCC2)O1 (stereo not given)
inactive: [17] 97 % of control | dose: 100.0 mg/kg/injection, schedule: Q01DX005 (ip), vehicle: Klucel (hydroxypropylcellulose) (HPC) 97 % of control | dose: 200.0 mg/kg/injection, schedule: Q01DX005 (ip), vehicle: Klucel (hydroxypropylcellulose) (HPC) 101 % of control and 104 % of control

CC(C)(O)Cc1ccc(Cl)cc1
inactive: dose: 25.0 mg/kg/injection, schedule: Q01DX009 (ip), vehicle: saline with Tween-80 99 % of control | dose: 50.0 mg/kg/injection, schedule: Q01DX009 (ip), vehicle: saline with Tween-80 105 % of control | [15] 108 % of control | [16] 105 % of control

COc1cc2oc(=O)ccc2cc1[C@@H]1OC(=O)C2(C)O[C@@H]12 (stereo not given in full)
inactive: dose: 2.5 mg/kg/injection, schedule: Q01DX009 (ip), vehicle: saline 112 % of control | dose: 5.0 mg/kg/injection, schedule: Q01DX009 (ip), vehicle: saline 93 % of control | dose: 6.0 mg/kg/injection, schedule: Q01DX009 (ip), vehicle: Klucel (hydroxypropylcellulose) (HPC) 107 % of control | dose: 6.0 mg/kg/injection, schedule: Q01DX009 (ip), vehicle: saline with Tween-80 110 % of control | dose: 8.0 mg/kg/injection, schedule: Q01DX009 (ip), vehicle: Klucel (hydroxypropylcellulose) (HPC) 114 % of control | dose: 8.0 mg/kg/injection, schedule: Q01DX009 (ip), vehicle: saline with Tween-80 117 % of control | dose: 10.0 mg/kg/injection, schedule: Q01DX009 (ip), vehicle: Klucel (hydroxypropylcellulose) (HPC) 105 % of control | [7] 110 % of control | dose: 12.0 mg/kg/injection, schedule: Q01DX009 (ip), vehicle: Klucel (hydroxypropylcellulose) (HPC) 103 % of control | dose: 12.0 mg/kg/injection, schedule: Q01DX009 (ip), vehicle: saline with Tween-80 110 % of control

CCCSCC
inactive: [11] 104 % of control | [12] 100 % of control | [13] 100 % of control

Cc1cc(N=[N+]=[N-])c2ccccc2n1
inactive: [8] 105 % of control | [9] 94 % of control

CC(=O)Nc1cccc(/C=C/C=C/c2ccc([N+](=O)[O-])cc2)c1
inactive: dose: 37.5 mg/kg/injection, schedule: Q01DX001 (ip), vehicle: saline with Tween-80 100 % of control | dose: 75.0 mg/kg/injection, schedule: Q01DX001 (ip), vehicle: saline with Tween-80 95 % of control | dose: 150.0 mg/kg/injection, schedule: Q01DX001 (ip), vehicle: saline with Tween-80 90 % of control

C[N+]1=C(/C=C/Nc2cccc(N/C=C/C3=[N+](C)c4ccccc4C3(C)C)c2)C(C)(C)c2ccccc21
inactive: [14] 97 % of control | dose: 25.0 mg/kg/injection, schedule: Q01DX005 (ip), vehicle: Klucel (hydroxypropylcellulose) (HPC) 97 % of control | [17] 105 % of control

COc1ccc(-c2c(-c3ccccc3)c(=O)oc3cc(OC)ccc23)cc1
inactive: [8] 91 % of control | [9] 87 % of control and 88 % of control

NNC(=O)CCSC(=O)Nc1ccccc1
inactive: [4] 110 % of control | [5] 106 % of control | [6] 107 % of control and 112 % of control | [10] 114 % of control
